Literature values as cited in PMC12910647, “Tumor-Targeted Delivery of an EGFR Inhibitor Prodrug via Site-Specific Albumin Conjugation” (Journal of Medicinal Chemistry, 2026).

Set-up: method as in not given
Details: in mice, reported value; ref not given

C=CC(=O)Nc1cc(Nc2nccc(-c3cn(C)c4ccccc34)n2)c(OC)cc1N(C)CCN(C)C [osimertinib]
maximum tolerated dose (MTD): 25 mg/kg
